Common to all, as to assay: NCI tumour cell line growth inhibition, 48 h
Assay [1] deals with 786-0 renal.
The test system of assay [2] is A549 NSCLC.
Assay [3] relates to HCT-15 colon.
The subject of assay [4] is HS 578T breast.
The test system of assay [5] is IGROV1 ovarian.
Assay [6] deals with K-562 leukemia.
Assay [7] deals with MALME-3M melanoma.
For assay [8], the system named is MDA-MB-231 breast.
Assay [9] has as its system MDA-MB-435.
Assay [10] deals with NCI-H23 lung.
The test system of assay [11] is NCI-H522 lung.
Assay [12] relates to NCI/ADR-RES ovarian.
Assay [13] concerns OVCAR-3 ovarian.
The test system of assay [14] is OVCAR-4 ovarian.
Assay [15] has as its system SN12C renal.
For assay [16], the system named is SR leukemia.
Assay [17] has as its system SW-620 colon.
The test system of assay [18] is TK-10 renal.
Assay [19] deals with UACC-257 melanoma.

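Grown in 96-well plates, cells were treated for 48 hours with each compound at five concentrations. Insufficient inhibition: endpoint recorded as highest concentration tested. TGI denotes the concentration required for complete inhibition of growth.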

For the compound `CCOC(=O)P(=O)(O)c1ccc(N(C)Cc2ccccc2)cc1`, the TGI in assay [1], in assay [2], in assay [3], in assay [4], in assay [5] and in assay [6] was above 100 µM each time. For the same compound, the TGI in assay [7], in [8], in assay [9], in assay [10], in assay [11] and in [12] was above 100 µM throughout. Also, the TGI in assay [13], in assay [14], in assay [15], in assay [16], in assay [17] and in assay [18] was above 100 µM throughout. The compound also registered a TGI in assay [19] above 100 µM.
Regarding `COCCOC(=O)c1c(C)n([O-])c2cc(Cl)c(Cl)cc2[n+]1=O`, the TGI in assay [1] is 85.1 µM; in assay [2], 35.7 µM; in [3], 22.3 µM; in [4], above 100 µM; in assay [5], 23.5 µM; in [6], 34.7 µM. Besides, the TGI amounted to 46.3 µM in [7]; 53.8 µM in [8]; 66.2 µM in assay [9]; 79.2 µM in assay [10]; 54.6 µM in assay [11]; 27.4 µM in assay [12]. The TGI in assay [13] worked out at 34.5 µM; in [14], 30.8 µM; in [15], 70 µM; in assay [16], 18.9 µM; in assay [17], 65.3 µM; in [18], 98.3 µM. For the same compound, the TGI in assay [19] was above 100 µM.
On to `O=C(Nc1ccc(Cl)cc1)NS(=O)(=O)c1coc2cc(F)ccc2c1=O`, for which the TGI in assay [1], in assay [2], in assay [3], in [4], in [5] and in assay [6] was above 100 µM each time. The TGI in assay [7], in [8], in [9], in assay [10], in assay [11] and in assay [12] was above 100 µM each time. Also, the TGI in assay [13], in assay [14], in assay [15], in assay [16], in assay [17] and in assay [18] was above 100 µM each time. Besides, in assay [19], the TGI is above 100 µM.
On to `CSc1nc(C#N)c(/N=C\N(C)C)n1C`, for which the TGI in [1], in assay [2], in [3], in assay [4], in assay [5] and in assay [6] was above 100 µM each time. Moreover, the TGI in assay [7], in [8], in [9], in assay [10], in assay [11] and in assay [12] was above 100 µM in each case. In addition, the TGI in [13], in assay [14], in [15], in assay [16], in assay [17] and in assay [18] was above 100 µM in each case. Also, the TGI in assay [19] is above 100 µM.
For the compound `Cc1nc2ccccc2n1COC(Cn1ccnc1)c1ccc(Cl)cc1Cl` (centres undefined), the TGI in assay [1], in assay [2], in [3], in assay [4], in [5] and in [6] was above 100 µM throughout. The TGI in [7], in assay [8], in assay [9], in assay [10], in assay [11] and in assay [12] was above 100 µM throughout. Also, the TGI in [13], in assay [14], in [15], in [16], in [17] and in [18] was above 100 µM each time. Moreover, in assay [19], the TGI is above 100 µM.
On to `NC(N)=N/N=C/c1c(-c2ccc(Cl)cc2)nc2sccn12`, for which the TGI in [1] is 2.99 µM; in [2] it was 3.15 µM; in assay [3] it was 6.36 µM; in assay [4], 37.6 µM; in assay [5] it was 4.24 µM; in assay [6], 14.3 µM. The TGI in assay [7] amounted to 4.95 µM; in assay [8], 8.15 µM; in assay [9], 3.43 µM; in assay [10], 19.9 µM; in assay [11], 3.19 µM; in [12], 23.3 µM. Moreover, the TGI is 3.6 µM in assay [13]; 4.24 µM in assay [14]; 3.9 µM in assay [15]; 13.2 µM in assay [16]; 3.04 µM in assay [17]; 6.53 µM in [18]. The compound also displayed a TGI in assay [19] of 3.62 µM.
With `O=C(ON=C1c2ccccc2C(Br)C(Br)c2ccccc21)c1cc([N+](=O)[O-])cc([N+](=O)[O-])c1` (centres undefined), the TGI in assay [1] came to 28.7 µM; in assay [2], 75.7 µM; in assay [3], 42.7 µM; in [4], 61.6 µM; in [5] it was 26.6 µM; in assay [6], 45.3 µM. The TGI is 33 µM in [7]; 35.6 µM in assay [8]; 35.3 µM in assay [9]; 40.1 µM in [10]; 14.3 µM in assay [11]; 40.5 µM in assay [12]. In addition, the TGI in assay [13] stood at 35.5 µM; in [14] it was 48.2 µM; in [15], 35.8 µM; in [16] it was 26.9 µM; in [17], 40.5 µM; in assay [18], 45.8 µM. In [19], this compound had a TGI of 33.2 µM.
In the case of `C1=NCCN2CCN(CCN=Cc3ccc(cc3)OCc3cccc(n3)COc3ccc1cc3)CC2`, the TGI in assay [1], in assay [2], in assay [3], in assay [4], in assay [5] and in [6] was above 50 µM in each case. Also, the TGI in assay [7], in assay [8], in assay [9], in assay [10], in assay [11] and in [12] was above 50 µM each time. In addition, the TGI in assay [13], in assay [14], in [15], in assay [16], in assay [17] and in assay [18] was above 50 µM in each case. The compound also showed a TGI in assay [19] above 50 µM.
`O=C(CN1CCCCC1)Nc1ccc2sc3ccccc3c(=O)c2n1`: the TGI is 37.2 µM in assay [1]; 31.7 µM in assay [2]; 40.2 µM in assay [3]; 45.2 µM in assay [4]; 37.4 µM in assay [5]; 52.3 µM in [6]. In addition, the TGI in [7] was 49 µM; in assay [8], 59.9 µM; in assay [9], 26.2 µM; in assay [10], 38.8 µM; in assay [11], 23.1 µM; in assay [12] it was 36.1 µM. The TGI was above 100 µM in assay [13]; above 100 µM in assay [14]; 68.3 µM in [15]; above 100 µM in [16]; 31.4 µM in assay [17]; 50.4 µM in assay [18]. Also, the TGI in assay [19] worked out at 39.7 µM.
Take `C=CCN1C(=O)/C(=C/c2ccc(OC)cc2)N=C1SC/C=C/C`: the TGI in assay [1], in assay [2], in assay [3], in assay [4], in assay [5] and in assay [6] was above 100 µM in each case. Further, the TGI in assay [7], in assay [8], in assay [9], in assay [10], in [11] and in [12] was above 100 µM in each case. Further, the TGI was above 100 µM in assay [13]; above 100 µM in assay [14]; 80.6 µM in assay [15]; 63.8 µM in assay [16]; above 100 µM in assay [17]; above 100 µM in assay [18]. In [19], this compound yielded a TGI above 100 µM.
As for `COc1ccc2[nH]cc(CCNC(=O)[C@H](Cc3ccccc3)NC(=O)[C@@H](NCC(F)(F)F)C(C)C)c2c1`, the TGI in assay [1] was 35.1 µM; in assay [2] it was 70 µM; in assay [3], 42.2 µM; in [4], 39.6 µM; in assay [5], 51.3 µM; in [6] it was above 100 µM. In addition, the TGI in [7] turned out to be 51.9 µM; in assay [8], 35.9 µM; in assay [9] it was 34.8 µM; in assay [10], 64.6 µM; in assay [11] it was 32.1 µM; in assay [12], 41 µM. The TGI is 31.1 µM in [13]; 32.3 µM in assay [14]; 49 µM in [15]; above 100 µM in assay [16]; 81.6 µM in [17]; 57.4 µM in assay [18]. In assay [19], this compound registered a TGI of 37.8 µM.

The record behind these values is PubChem BioAssay (NCI).
